From PMC4245125, “Pharmacological and Behavioral Characterization of D-473, an Orally Active Triple Reuptake Inhibitor Targeting Dopamine, Serotonin and Norepinephrine Transporters” (PLoS ONE, 2014)
Where “and” joins values, the source holds several entries; their conditions need not be identical. Equal entries are not always repeated.

What was measured:
D1 = D1 (Homo sapiens, UniProt P21728); assay: NIMH PDSP receptor binding, D1
D4 = target: T1, D4 (Homo sapiens, UniProt P21917); assay: NIMH PDSP receptor binding, D4; conditions: [3H]N-methylspiperone, read-out: % Inhibition of Binding at 10 µM D-473
T1 construct: purchased NIMH PDSP

5HT1a = target: T2, 5HT1a (Homo sapiens, UniProt P08908); assay: NIMH PDSP receptor binding, 5HT1a; conditions: [3H]8-OH-DPAT, read-out: % Inhibition of Binding at 10 µM D-473
T2 construct: purchased NIMH PDSP

5HT1e = target: T3, 5HT1e (Homo sapiens, UniProt P28566); assay: NIMH PDSP receptor binding, 5HT1e; conditions: [3H]5-HT, read-out: % Inhibition of Binding at 10 µM D-473
T3 construct: purchased NIMH PDSP

5HT2a = target: T4, 5HT2a (Homo sapiens, UniProt P28223); assay: NIMH PDSP receptor binding, 5HT2a; conditions: [3H]ketanserin, read-out: % Inhibition of Binding at 10 µM D-473
T4 construct: purchased NIMH PDSP

5HT2b = 5HT2b (Homo sapiens, UniProt P41595); assay: NIMH PDSP receptor binding, 5HT2b; conditions: [3H]LSD
5HT3 = target: T5, 5HT3 (Homo sapiens, UniProt P46098); assay: NIMH PDSP receptor binding, 5HT3; conditions: [3H] LY 278,584, read-out: % Inhibition of Binding at 10 µM D-473
T5 construct: purchased NIMH PDSP

GABA A = assay: NIMH PDSP receptor binding, GABA A; conditions: [3H]Muscimol
Beta3 = target: T6, Beta3 (Homo sapiens, UniProt P13945); assay: NIMH PDSP receptor binding, Beta3; conditions: [125I]Iodopindolol
T6 construct: NIMH PDSP

δ-opioid = target: T7, δ-opioid (Homo sapiens, UniProt P41143); assay: NIMH PDSP receptor binding, δ-opioid; conditions: [3H]DADLE, read-out: % Inhibition of Binding at 10 µM D-473
T7 construct: purchased NIMH PDSP

H2 = target: T8, H2 (Homo sapiens, UniProt P25021); assay: NIMH PDSP receptor binding, H2; conditions: [3H]Tiotodine
T8 construct: NIMH PDSP

H3 = target: T9, H3 (Homo sapiens, UniProt Q9Y5N1); assay: NIMH PDSP receptor binding, H3; conditions: [3H]Alpha-methyl Histamine, read-out: % Inhibition of Binding at 10 µM D-473
T9 construct: purchased NIMH PDSP

µ-Opioid = target: T10, µ-Opioid (Homo sapiens, UniProt P35372); assay: NIMH PDSP receptor binding, µ-Opioid; conditions: [3H]Diprenorphine, read-out: % Inhibition of Binding at 10 µM D-473
T10 construct: purchased NIMH PDSP

M1 = target: T11, M1 (Homo sapiens, UniProt P11229); assay: biochemical; conditions: read-out: % Inhibition of Binding at 10 µM D-473
T11 construct: purchased NIMH PDSP

M2 = target: T12, M2 (Homo sapiens, UniProt P08172); assay: biochemical; conditions: read-out: % Inhibition of Binding at 10 µM D-473
T12 construct: purchased NIMH PDSP

M5 = target: T13, M5 (Homo sapiens, UniProt P08912); assay: biochemical; conditions: read-out: % Inhibition of Binding at 10 µM D-473
T13 construct: purchased NIMH PDSP

[1] = Brain uptake after oral administration in rats; format: in vivo; conditions: rat, 25 mg/kg PO
Experimental: Sample preparation: Following oral administration of 25 mg/kg of D-473 and D-142 in male Sprague Dawley rats, the blood samples were collected at different time points over a period of 8 h for analysis. Concentrations of D-473 and D-142 in plasma were quantitated using a set of calibration standards prepared in blank matrix that were processed in parallel. Plasma concentration evaluation was carried out by the CRO, Absorption System, PA. Additionally, brain uptake studies of D-473 were carried out at three different time points (2, 4 and 6 h) following oral administration of 25 mg/kg D-473. Concentrations of D-473 in rat brain were quantitated using a set of calibration standards which were prepared in blank brain homogenate matrix on the day of analysis. The standard samples (5, 10, 25, 100, 500, 1000, and 2000 ng/mL) for calibration curve were prepared by spiking 45 µL of blank rat plasma with 5 µL of appropriate working dilution of D-473 in acetonitrile. The bioanalytical sample preparation for brain and plasma analysis followed by quantification of test compounds entailed the addition of 250 µL acetonitrile to every 50 µL of standard and analyte samples to precipitate tissue plasma proteins and tissue macromolecules. These mixtures were then vortexed for 15 min at 1400 rpm. The suspensions were then clarified by centrifugation (18000 g, 10 min at 4°C), and each 150 µL of the resulting supernatant was mixed well with 50 µL 0.1% formic acid in 50/50 (v/v) ACN/water solution for about 10 sec. The mixtures were again centrifuged (18000 g, 10 min at 4°C) before 100 µL of clear supernatant were transferred to auto sampler vials for LC-MS/MS analysis.
The analysis of brain samples was performed using Waters (Milford, MA, USA) Acquity UPLC instrument with a triple quadrupole (TQD) MS analyzer. The LC-MS/MS detection was performed using a positive Multiple Reaction Monitoring (MRM) method by monitoring the ion transition of D-473 from m/z 440.39 → 121.03. The MS/MS conditions include capillary voltage, 2.92 kV, cone voltage, 26.0 V; source temperature, 150°C; desolvation temperature, 350°C; desolvation gas flow, 500 L/hr; and collision energy, 33 eV. The MS control and data acquisition were collected using the Waters MassLynx software v4.1. Chromatographic conditions were achieved using a reverse phase C-18 ethylene bridged hybrid column (BEH C18) (2.1×100 mm, 1.7 µM). 5 µL of sample solutions were injected and samples were eluted using 0.1% formic acid in water (solvent A) and 0.1% formic acid in ACN (solvent B) mixture with a flow rate of 0.2 mL/min. Gradient elution of the mobile phase was 90% A to 5% A from 0 to 1 min, 5% A, 95% B from 1 to 3 min, and 5% A to 90% A from 3 to 5 min.

hDAT = hDAT (Homo sapiens, UniProt Q01959); assay: Inhibition of [3H]DA uptake by cloned human DAT in HEK293 cells; conditions: nM, HEK293 cells expressing hDAT, average±S.E.M., 3 to 10 determinations
[2] = 10 µM, read-out: % Inhibition of Binding at 10 µM D-473
[3] = secondary assay, read-out: Ki for D-473

T6 sequence (P13945 whole entry): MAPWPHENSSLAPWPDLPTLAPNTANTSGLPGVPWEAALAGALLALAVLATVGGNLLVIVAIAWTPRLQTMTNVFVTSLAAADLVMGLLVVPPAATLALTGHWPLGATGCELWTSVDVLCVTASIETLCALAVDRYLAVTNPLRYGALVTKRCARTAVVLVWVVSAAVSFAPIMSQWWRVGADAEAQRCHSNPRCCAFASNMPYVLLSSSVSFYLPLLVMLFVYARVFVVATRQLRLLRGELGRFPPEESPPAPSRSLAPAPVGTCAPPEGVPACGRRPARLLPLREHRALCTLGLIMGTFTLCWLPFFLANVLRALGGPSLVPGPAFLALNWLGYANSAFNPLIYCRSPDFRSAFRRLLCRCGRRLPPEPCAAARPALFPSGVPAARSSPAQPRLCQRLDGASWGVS
T8 sequence (P25021 whole entry): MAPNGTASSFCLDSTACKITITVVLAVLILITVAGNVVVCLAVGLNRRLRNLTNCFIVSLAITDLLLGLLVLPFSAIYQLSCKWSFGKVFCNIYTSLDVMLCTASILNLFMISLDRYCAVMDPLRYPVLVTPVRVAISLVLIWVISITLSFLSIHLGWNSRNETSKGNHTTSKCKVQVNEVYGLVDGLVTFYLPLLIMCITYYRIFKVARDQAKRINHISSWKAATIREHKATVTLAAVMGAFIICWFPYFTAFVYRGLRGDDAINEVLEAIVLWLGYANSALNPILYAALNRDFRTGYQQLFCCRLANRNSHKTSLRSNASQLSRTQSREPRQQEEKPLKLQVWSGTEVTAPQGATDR
5HT2b, sequence (P41595 whole entry): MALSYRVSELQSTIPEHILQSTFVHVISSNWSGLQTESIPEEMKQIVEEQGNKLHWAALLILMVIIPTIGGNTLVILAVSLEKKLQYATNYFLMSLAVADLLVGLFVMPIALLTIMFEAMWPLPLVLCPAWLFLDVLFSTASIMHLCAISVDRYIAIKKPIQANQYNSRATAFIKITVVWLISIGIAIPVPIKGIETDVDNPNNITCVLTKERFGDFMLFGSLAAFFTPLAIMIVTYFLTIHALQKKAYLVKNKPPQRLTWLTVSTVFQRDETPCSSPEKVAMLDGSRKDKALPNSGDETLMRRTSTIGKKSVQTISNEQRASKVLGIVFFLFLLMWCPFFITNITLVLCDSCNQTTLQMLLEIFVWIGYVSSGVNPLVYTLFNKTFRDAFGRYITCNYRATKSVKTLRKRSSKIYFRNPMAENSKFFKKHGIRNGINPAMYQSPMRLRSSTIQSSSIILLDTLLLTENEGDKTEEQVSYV
D1, sequence (P21728 whole entry): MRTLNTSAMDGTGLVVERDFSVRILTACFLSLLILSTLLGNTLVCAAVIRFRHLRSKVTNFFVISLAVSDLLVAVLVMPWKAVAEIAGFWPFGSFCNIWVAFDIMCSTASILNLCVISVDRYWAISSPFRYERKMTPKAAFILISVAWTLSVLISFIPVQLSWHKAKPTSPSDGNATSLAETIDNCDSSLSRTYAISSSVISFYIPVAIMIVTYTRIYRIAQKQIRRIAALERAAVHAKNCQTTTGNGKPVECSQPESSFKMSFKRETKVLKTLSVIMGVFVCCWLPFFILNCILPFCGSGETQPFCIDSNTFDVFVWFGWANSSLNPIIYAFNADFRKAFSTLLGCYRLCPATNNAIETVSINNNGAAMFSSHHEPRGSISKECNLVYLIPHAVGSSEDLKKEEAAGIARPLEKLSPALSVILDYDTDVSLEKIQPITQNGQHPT
hDAT, sequence (Q01959 whole entry): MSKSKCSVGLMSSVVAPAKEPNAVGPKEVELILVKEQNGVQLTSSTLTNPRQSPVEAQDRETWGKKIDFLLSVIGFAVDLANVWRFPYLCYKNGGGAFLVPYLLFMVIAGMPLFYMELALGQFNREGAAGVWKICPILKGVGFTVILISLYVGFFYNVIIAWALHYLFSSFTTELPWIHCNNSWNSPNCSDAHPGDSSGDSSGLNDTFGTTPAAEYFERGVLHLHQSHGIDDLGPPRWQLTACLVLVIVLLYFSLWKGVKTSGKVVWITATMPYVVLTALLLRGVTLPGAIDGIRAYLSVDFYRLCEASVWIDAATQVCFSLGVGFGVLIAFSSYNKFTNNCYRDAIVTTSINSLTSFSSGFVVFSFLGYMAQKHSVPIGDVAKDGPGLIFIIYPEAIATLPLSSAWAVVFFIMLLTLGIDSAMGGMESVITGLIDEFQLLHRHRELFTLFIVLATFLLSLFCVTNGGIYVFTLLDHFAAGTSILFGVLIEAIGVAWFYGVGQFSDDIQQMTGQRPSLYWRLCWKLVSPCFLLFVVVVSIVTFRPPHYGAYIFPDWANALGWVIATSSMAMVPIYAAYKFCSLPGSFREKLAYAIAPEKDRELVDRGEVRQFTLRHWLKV
T3 sequence (P28566 whole entry): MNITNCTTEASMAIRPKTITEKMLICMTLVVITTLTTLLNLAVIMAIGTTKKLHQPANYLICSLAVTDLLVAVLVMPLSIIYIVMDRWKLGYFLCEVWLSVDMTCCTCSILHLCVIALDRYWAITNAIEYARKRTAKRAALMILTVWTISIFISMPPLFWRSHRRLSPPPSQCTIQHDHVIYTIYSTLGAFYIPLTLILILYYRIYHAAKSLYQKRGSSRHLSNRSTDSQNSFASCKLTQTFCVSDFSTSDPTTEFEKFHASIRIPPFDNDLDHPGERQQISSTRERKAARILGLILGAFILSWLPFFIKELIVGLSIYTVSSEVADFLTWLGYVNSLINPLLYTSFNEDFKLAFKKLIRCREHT
T9 sequence (Q9Y5N1 whole entry): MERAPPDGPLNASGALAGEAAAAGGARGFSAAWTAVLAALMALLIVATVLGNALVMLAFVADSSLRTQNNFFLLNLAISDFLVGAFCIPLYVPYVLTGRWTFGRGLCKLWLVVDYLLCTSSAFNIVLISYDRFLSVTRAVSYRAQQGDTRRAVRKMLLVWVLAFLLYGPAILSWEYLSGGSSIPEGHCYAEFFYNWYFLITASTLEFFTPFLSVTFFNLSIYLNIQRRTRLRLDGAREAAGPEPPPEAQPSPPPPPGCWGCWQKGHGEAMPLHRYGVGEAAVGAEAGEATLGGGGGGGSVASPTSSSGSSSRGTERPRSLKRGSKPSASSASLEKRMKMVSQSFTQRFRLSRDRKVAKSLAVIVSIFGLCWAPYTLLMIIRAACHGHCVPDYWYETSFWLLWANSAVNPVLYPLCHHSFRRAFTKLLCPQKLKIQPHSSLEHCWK
T2 sequence (P08908 whole entry): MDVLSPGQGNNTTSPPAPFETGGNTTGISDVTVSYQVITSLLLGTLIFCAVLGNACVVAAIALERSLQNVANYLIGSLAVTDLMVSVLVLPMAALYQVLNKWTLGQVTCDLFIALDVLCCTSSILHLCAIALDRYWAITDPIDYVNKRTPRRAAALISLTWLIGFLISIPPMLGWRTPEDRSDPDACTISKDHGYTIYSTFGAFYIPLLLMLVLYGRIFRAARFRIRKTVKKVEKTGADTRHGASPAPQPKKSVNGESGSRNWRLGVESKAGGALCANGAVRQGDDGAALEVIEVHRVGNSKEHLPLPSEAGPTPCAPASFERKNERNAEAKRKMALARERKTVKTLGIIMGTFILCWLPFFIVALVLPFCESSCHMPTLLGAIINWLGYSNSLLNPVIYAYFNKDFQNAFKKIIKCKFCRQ
T4 sequence (P28223 whole entry): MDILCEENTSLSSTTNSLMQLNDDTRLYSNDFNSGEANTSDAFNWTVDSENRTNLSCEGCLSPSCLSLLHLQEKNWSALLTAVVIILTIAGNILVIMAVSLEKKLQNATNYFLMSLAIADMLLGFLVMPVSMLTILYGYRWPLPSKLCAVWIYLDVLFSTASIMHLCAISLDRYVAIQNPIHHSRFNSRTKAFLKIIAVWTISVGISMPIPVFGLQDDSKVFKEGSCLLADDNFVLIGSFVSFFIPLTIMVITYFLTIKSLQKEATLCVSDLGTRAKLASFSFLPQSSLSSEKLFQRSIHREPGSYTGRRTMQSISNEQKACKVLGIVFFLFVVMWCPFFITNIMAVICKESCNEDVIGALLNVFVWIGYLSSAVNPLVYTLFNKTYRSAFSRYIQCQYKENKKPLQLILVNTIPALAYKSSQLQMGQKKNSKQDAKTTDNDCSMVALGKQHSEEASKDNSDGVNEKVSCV
T13 sequence (P08912 whole entry): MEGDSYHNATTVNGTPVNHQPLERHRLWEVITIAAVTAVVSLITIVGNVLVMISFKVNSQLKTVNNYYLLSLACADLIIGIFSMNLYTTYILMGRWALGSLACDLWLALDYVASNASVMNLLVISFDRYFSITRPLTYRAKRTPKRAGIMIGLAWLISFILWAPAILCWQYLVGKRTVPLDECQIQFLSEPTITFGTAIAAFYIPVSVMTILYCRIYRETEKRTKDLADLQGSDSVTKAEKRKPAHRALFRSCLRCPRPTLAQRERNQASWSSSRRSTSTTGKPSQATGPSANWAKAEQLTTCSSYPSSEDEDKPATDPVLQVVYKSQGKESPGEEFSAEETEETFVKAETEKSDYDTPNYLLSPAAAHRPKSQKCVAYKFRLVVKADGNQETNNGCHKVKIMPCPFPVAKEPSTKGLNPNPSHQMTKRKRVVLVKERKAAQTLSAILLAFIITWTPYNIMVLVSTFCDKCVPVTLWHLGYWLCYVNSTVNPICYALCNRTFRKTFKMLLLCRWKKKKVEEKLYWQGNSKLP
T10 sequence (P35372 whole entry): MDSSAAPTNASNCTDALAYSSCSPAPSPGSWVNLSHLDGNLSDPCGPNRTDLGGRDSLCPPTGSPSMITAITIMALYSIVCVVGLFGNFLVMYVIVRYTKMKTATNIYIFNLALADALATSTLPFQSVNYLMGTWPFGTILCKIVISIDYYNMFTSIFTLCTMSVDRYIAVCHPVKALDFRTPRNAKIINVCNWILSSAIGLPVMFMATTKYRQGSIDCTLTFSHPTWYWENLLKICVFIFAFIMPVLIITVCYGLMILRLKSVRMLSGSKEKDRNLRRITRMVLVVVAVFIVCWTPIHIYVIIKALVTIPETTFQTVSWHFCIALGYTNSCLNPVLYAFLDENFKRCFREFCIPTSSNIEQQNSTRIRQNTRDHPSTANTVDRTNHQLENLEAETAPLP

COc1ccc(CN[C@@H]2CO[C@H](C(c3ccc(F)cc3)c3ccc(F)cc3)C[C@H]2O)cc1 [Compound D-473, (2S,4R,5R)-2-(bis(4-fluorophenyl)methyl)-5-((4-methoxybenzyl)amino)tetrahydro-2H-pyran-4-ol]
inhibition at 10 µM (D1; [3H]SCH 23390, 10 µM, read-out: % Inhibition of Binding at 10 µM D-473): 62.2%
Ki (D1; [3H]SCH 23390, secondary assay, read-out: Ki for D-473): 630 nM
inhibition at 10 µM (D4): 37.2%
inhibition at 10 µM (5HT1a): 35.4%
inhibition at 10 µM (5HT1e): 38%
inhibition at 10 µM (5HT2a): 16.3%
inhibition at 10 µM (5HT2b; [2]): 70.8%
Ki (5HT2b; [3]): 597 nM
inhibition at 10 µM (5HT3): 3.5%
% Inhibition of Binding at 10 µM D-473 (GABA A): 5.1%
inhibition at 10 µM (Beta3; [2]): 61.2%
Ki (Beta3; [3]): > 10 µM
inhibition at 10 µM (δ-opioid): 42.7%
inhibition at 10 µM (H2; [2]): 70.1%
Ki (H2; [3]): 141 nM
inhibition at 10 µM (H3): -14.7%
inhibition at 10 µM (µ-Opioid): 20.5%
inhibition at 10 µM (M1): 15%
inhibition at 10 µM (M2): -9.5%
inhibition at 10 µM (M5): 3.2%
Kp at 2 h ([1]; male, Sprague-Dawley, brain and plasma, 2 h, read-out: Brain/plasma ratio): 0.76
Kp at 4 h ([1]; male, Sprague-Dawley, brain and plasma, 4 h, read-out: Brain/plasma ratio): 1.54
Kp at 6 h ([1]; male, Sprague-Dawley, brain and plasma, 6 h, read-out: Brain/plasma ratio): 1.22
concentration at 2 h ([1]; male, Sprague-Dawley, brain, 2 h): 264 ng/mL
concentration at 4 h ([1]; male, Sprague-Dawley, brain, 4 h, read-out: Concentration in the brain (peak)): 345 ng/mL
Concentration in the brain ([1]; 6 h): slightly lower than observed at 2 h
Ki (hDAT): 70 nM and 70.4 nM
